Laboratory results reported in US12662707B2, “MYC amplification drives resistance to pan-RAS inhibitors in pancreatic cancer” (The Trustees of Columbia University in the City of New York, priority 2024, dated 2026).

Key:
pERK in colon = experiment: pERK IHC in colon tissues of KPF/FC mice; format: in vivo, mouse; settings: KPF/FC cohort; 10 and 25 mg/kg dose levels
Procedure: (§1) Tumor formation in KPF/FC (KrasLSL.G12D/+; p53flox/flox; Pdx1-Cre) mice was monitored by bi-weekly palpations until the detection of a mass, which was then confirmed by ultrasound. Tumor-bearing mice were randomized and assigned into groups (n=3/dose/timepoint). Single dose of RMC-7977 was administered orally at 10 mg/kg, 25 mg/kg and 50 mg/kg. The same vehicle formulation was used for the control group. Whole blood and tissue (tumors and colons) were harvested at indicated time points preserved as previously described (See Xenograft studies section).
All tissues were fixed for up to 24 hours using 10% neutral buffered formalin and then moved to 70% ethanol for long term storage. All stainings were performed on 4-μm tissue sections. Sections were deparaffinized using a Leica XL ST5010 autostainer, after which slides were subjected to heat-activated epitope retrieval. To block endogenous peroxidases, 20 min incubation in 3% H2O2 (Fisher Scientific) was performed. Slides were further blocked in serum for 1 hour, and primary antibodies were added for overnight incubation at 4° C. The next day, slides were washed and incubated with ImmPRESS HRP Horse Anti-Rabbit IgG Polymer Detection Kit (Vector Laboratories, MP-7401) for 30 min. […] Quantitative analyses of IHC images were performed using ImageJ.

human PDAC cell lines = experiment: Human cell line proliferation / viability assay; format: cell-based
Procedure: 19 PDAC cell lines were tested for sensitivity to RMC-7977 as part of a panel of human cancer cell lines of various histotypes screened at Crown Bioscience. These PDAC cell lines harbored KRASG12D, KRASG12V, KRASG12C, KRASQ61H, and BRAFV487_P492delinsA
mutations. To measure inhibition of cell proliferation, cells were cultured in methylcellulose and treated in triplicates with serial dilutions of RMC-7977 (top concentration of 1 μM) or DMSO dispensed by a Tecan D300e digital dispenser (Tecan Trading AG). Cells were incubated for 120 hours prior to measurement of ATP levels using CellTiter-Glo. Technical triplicates were run for each biological replicate and a total of three biological replicates was done for each cell line. CTG assay readouts were plotted as a function of log molar [inhibitor] and a 4-parameter sigmoidal concentration response model was fitted to the data. Mean±s.d. was plotted for each tested dilution.
PDAC cell lines harboring KRASWT or KRASQ61H were plated at 500-4,000 cells/well in clear, flat-bottomed 96-well plates (Corning) and grown for 24 h prior to adding indicated concentration of RMC-7977 or DMSO using the D300e digital dispenser (Tecan). Following treatment, cells were incubated for additional 3-5 days after which live cells were fluorescently labelled using Calcein AM (20-minute incubation at 500 nM, Thermo Fisher) and counted using the SpectraMax i3X multimode detection platform (Molecular Devices). Experiments were day 0 normalized using an independent culture plate. Growth percentage was calculated by normalizing drug-treated values to DMSO control, which was set to 100%. Four-parameter sigmoidal concentration response models were fitted to the data from 3 or more biological replicates. Mean±s.d. was plotted for each tested dilution.

[1] = test system: autochthonous KPC pancreatic tumors; experiment: One-week study in KPC mice; format: in vivo, mouse; settings: 50 mg/kg q.o.d.
Procedure: Tumor formation in KPC mice was monitored by bi-weekly palpation. […] Treatments were performed every other day via oral gavage for 1 week. […] Following two consecutive ultrasounds, RMC-7977-treated animals were sacrificed either 4 (n=7) or 24 hours (n=4) after last dose and Vehicle-treated animals were sacrificed between 4-24 hours post last dose. Tissue was harvested and preserved as previously described (See Xenograft studies section). Additional group of KPC mice was also treated with a single dose of RMC-7977 (n=10) or Vehicle (n=3) and tissues were harvested at 4 or 24 hours post dose as previously described.

[2] = test system: CC3+ apoptotic cells, Cyclin A2; experiment: CC3 and Cyclin A2 IHC in KPF/FC mice (tumor, colon); format: in vivo, mouse
Procedure: as §1
All tissues were fixed for up to 24 hours using 10% neutral buffered formalin and then moved to 70% ethanol for long term storage. All stainings were performed on 4-μm tissue sections. Sections were deparaffinized using a Leica XL ST5010 autostainer, after which slides were subjected to heat-activated epitope retrieval. To block endogenous peroxidases, 20 min incubation in 3% H2O2 (Fisher Scientific) was performed. Slides were further blocked in serum for 1 hour, and primary antibodies were added for overnight incubation at 4° C. The next day, slides were washed and incubated with ImmPRESS HRP Horse Anti-Rabbit IgG Polymer Detection Kit (Vector Laboratories, MP-7401) for 30 min. Following incubation, ImmPACT DAB peroxidase (Vector Laboratories, SK-4100) was used to develop the stain and hematoxylin was used as nuclear counterstain. Stained slides were imaged at 40× magnification. Quantitative analyses of IHC images were performed using ImageJ.

[3] = Tumor versus blood concentrations, all model systems tested; format: in vivo; settings: BALB/c, C57Bl/6, KPF/FC, mouse, tumor vs whole blood, oral, read-out: Kp (concentration in tumor tissues vs blood)
Procedure: Whole blood, tumor, colon and skin tissue concentrations of RMC-7977 were determined using liquid chromatography-tandem mass spectrometry (LC-MS/MS) methods. […] After thorough mixing and centrifugation, the supernatant was directly analyzed on a Sciex 6500+ triple quadrupole mass spectrometer equipped with an ACQUITY or Shimadzu UPLC system. An ACQUITY UPLC BEH C18 or C4 […] (2.1×50 mm) column was used with gradient elution for compound separation. RMC-7977 and IS (verapamil or terfenadine) were detected by positive electrospray ionization using multiple reaction monitoring (RMC-7977: m/z 865.4/706.4 or m/z 865.3/833.5; verapamil: m/z 455.2/164.9; terfenadine: m/z 472.3/436.4). […] BA analysis on blood and tissue samples from xenograft models was run at Wuxi AppTec. BA analysis on blood and tissue samples from allograft models and GEMM was run at Revolution Medicines.

## CCn1c(-c2cc(N3CCN(C4CC4)CC3)cnc2[C@H](C)OC)c2c3cc(ccc31)-c1csc(n1)C[C@H](NC(=O)[C@H]1[C@@H]3COC[C@@H]31)C(=O)N1CCC[C@H](N1)C(=O)OCC(C)(C)C2 [RMC-7977]
pERK in colon
  RAS/MAPK activity (pERK) in colon tissues: rapidly restored to baseline
Human PDAC cell lines; KRASQ61H (Pa02C, T3M-4, UM147), 5 days
  potency in three additional KRASQ61H PDAC lines: low nanomolar potency
Human PDAC cell lines; KRASWT cell lines and organoids
  sensitivity of KRASWT cell lines and organoids: wider range of sensitivity
Human PDAC cell lines; most human PDAC cell lines, 5 days
  potency in concentration-response cell viability assays: low nanomolar potency
Human PDAC cell lines; two human cell lines, one KRASQ61H, one KRASWT with BRAF ClassII mutation
  sensitivity in vitro: lower sensitivity
[1]
  impact on animal weight: little impact
[1]; KPC, 129S4/SvJae
  tumor response: regressions in most tumors
[2]; KPF/FC mice
  time to full restoration of Cyclin A2 levels in normal colon: ≤ 24 h
[2]; KPF/FC mice, at 12 hours
  proliferation (Cyclin A2) in normal colon: transient decrease
[2]; KPF/FC tumors, four hours after a single dose
  spike in CC3+ apoptotic cells in tumors: ~4 fold
[2]; all doses and time points
  apoptosis in normal tissues: negligible or absent
[3]
  Kp: > 1
